Results reported in patent US9255100B2 (BAYER INTELLECTUAL PROPERTY GMBH, priority 2010, dated 2016).

Biological target: T1, N-terminally GST-tagged human full length recombinant Mps-1 kinase (Homo sapiens, UniProt P33981)
T1 construct: N-terminally GST-tagged human full length recombinant Mps-1 kinase; purchased Invitrogen, Karslruhe, Germany PV4071
T1 sequence (P33981 1-857): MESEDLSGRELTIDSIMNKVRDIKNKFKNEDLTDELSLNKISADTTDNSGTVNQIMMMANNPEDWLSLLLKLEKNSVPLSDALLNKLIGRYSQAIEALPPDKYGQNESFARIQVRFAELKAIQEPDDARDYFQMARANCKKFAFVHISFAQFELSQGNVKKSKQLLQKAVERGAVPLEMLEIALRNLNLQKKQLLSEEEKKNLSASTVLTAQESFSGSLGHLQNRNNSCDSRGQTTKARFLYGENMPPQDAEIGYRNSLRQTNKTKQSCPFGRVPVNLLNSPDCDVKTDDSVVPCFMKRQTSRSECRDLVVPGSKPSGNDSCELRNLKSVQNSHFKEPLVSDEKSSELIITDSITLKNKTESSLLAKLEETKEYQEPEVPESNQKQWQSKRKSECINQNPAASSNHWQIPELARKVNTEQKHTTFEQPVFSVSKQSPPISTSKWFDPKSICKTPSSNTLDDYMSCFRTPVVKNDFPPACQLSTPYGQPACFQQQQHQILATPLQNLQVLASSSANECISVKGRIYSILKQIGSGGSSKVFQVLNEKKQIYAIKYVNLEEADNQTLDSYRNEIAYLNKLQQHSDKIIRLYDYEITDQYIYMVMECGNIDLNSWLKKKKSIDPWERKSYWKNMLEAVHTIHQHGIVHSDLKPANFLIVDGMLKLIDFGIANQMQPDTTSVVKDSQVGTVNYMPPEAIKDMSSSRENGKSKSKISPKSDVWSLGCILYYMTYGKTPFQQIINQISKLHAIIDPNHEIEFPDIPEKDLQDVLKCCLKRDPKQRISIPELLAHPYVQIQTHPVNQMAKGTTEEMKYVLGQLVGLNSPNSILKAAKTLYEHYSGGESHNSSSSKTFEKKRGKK
Test: Mps-1 kinase assay (TR-FRET)
Format: biochemical
Conditions: 10 μM ATP, 1 μM peptide substrate, 60 min at 22° C., read-out: Mps1 IC50
Outline: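 Read-out: TR-FRET from Europium-labelled anti-phospho(Ser/Thr) antibody to SA-XLent after 1 h detection incubation at 22° C. Inhibition of kinase activity measured.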

Row | Compound | IC50 [nM]
1 | Cc1cc(-c2cnc3c(NCC4CC[S+]([O-])CC4)cc(Oc4cccc(F)c4)nn23)ccc1C(=O)NC1CC1 (mixture of isomers) [Example 298B, N-cyclopropyl-4-[6-(3-fluorophenoxy)-8-({[(cis/trans)-1-oxidotetrahydro-2H-thiopyran-4-yl]methyl}amino)imidazo[1,2-b]pyridazin-3-yl]-2-methylbenzamide] | 0.1

Same assay, conditions: Mps1 IC50 [nM], 10 μM ATP, 1 μM peptide substrate, 60 min at 22° C.

Row | Compound | IC50 [nM]
2 | CCCSc1cc(NCC(C)C)c2ncc(-c3ccc(C(=O)NC4CC4)c(C)c3)n2n1 [Example 201, N-cyclopropyl-2-methyl-4-{8-[(2-methylpropyl)amino]-6-(propylsulfanyl)imidazo[1,2-b]pyridazin-3-yl}benzamide] | 2.3
3 | Cc1cc(-c2cnc3c(NCC(C)(C)O)cc(SC4CCOCC4)nn23)ccc1C(=O)NC1CC1 [Example 335, N-cyclopropyl-4-{8-[(2-hydroxy-2-methylpropyl)amino]-6-(tetrahydro-2H-pyran-4-ylsulfanyl)imidazo[1,2-b]pyridazin-3-yl}-2-methylbenzamide] | 3.6
4 | CC(C)CNc1cc(-c2ccc(C(=O)N(C)C)cc2)nn2c(-c3ccc(C(=O)NC4CC4)cc3)cnc12 [Example 109, 4-{3-[4-(Cyclopropylcarbamoyl)phenyl]-8-[(2-methylpropyl)amino]imidazo[1,2-b]pyridazin-6-yl}-N,N-dimethylbenzamide] | 2.1
5 | CC(C)CNc1cc(-c2ccc(C(F)(F)F)cc2)nn2c(-c3ccc(C(=O)NC4CC4)cc3)cnc12 [Example 123, N-cyclopropyl-4-{8-[(2-methylpropyl)amino]-6-[4-(trifluoromethyl)phenyl]imidazo[1,2-b]pyridazin-3-yl}benzamide] | 7.6
6 | CC(C)(O)CNc1cc(-c2ccc(F)cc2)nn2c(-c3ccc(C(=S)NC4CC4)cc3)cnc12 [Example 32, N-cyclopropyl-4-{6-(4-fluorophenyl)-8-[(2-hydroxy-2-methylpropyl)amino]imidazo[1,2-b]pyridazin-3-yl}benzenecarbothioamide] | 4.3
7 | Cc1cc(-c2cnc3c(NC[C@H]4CCCO4)cc(-c4ccncc4)nn23)ccc1C(=O)NC1CC1 [Example 35, N-cyclopropyl-2-methyl-4-[6-(pyridin-4-yl)-8-{[(2R)-tetrahydrofuran-2-ylmethyl]amino}imidazo[1,2-b]pyridazin-3-yl]benzamide] | 2.5
8 | Cc1cc(-c2cnc3c(NCC(C)(C)N)cc(-c4ccnn4C)nn23)ccc1C(=O)NC1CC1 [Example 58, 4-{8-[(2-Amino-2-methylpropyl)amino]-6-(1-methyl-1H-pyrazol-5-yl)imidazo[1,2-b]pyridazin-3-yl}-N-cyclopropyl-2-methylbenzamide] | 20.5
9 | Cc1cc(-c2cnc3c(NCC(C)(C)O)cc(-c4ccccc4F)nn23)ccc1C(=O)NC1CC1 [Example 233, N-cyclopropyl-4-{6-(2-fluorophenyl)-8-[(2-hydroxy-2-methylpropyl)amino]imidazo[1,2-b]pyridazin-3-yl}-2-methylbenzamide] | 1.7
10 | Cc1cc(-c2cnc3c(NCCCC(C)O)cc(-c4ccccc4CO)nn23)ccc1C(=O)NC1CC1 (racemic) [Example 342, (RS)-N-cyclopropyl-4-{6-[2-(hydroxy-methyl)phenyl]-8-[(4-hydroxy-pentyl)amino]imidazo[1,2-b]pyridazin-3-yl}-2-methylbenzamide] | 6.9
11 | CCNC(=O)c1ccc(-c2cnc3c(NCCN4CCOCC4)cc(Oc4ccccc4)nn23)cc1C [Example 593, N-ethyl-2-methyl-4-(8-{[2-(morpholin-4-yl)ethyl]amino}-6-phenoxyimidazo[1,2-b]pyridazin-3-yl)benzamide] | 9
12 | Cc1cc(-c2cnc3c(NCC(C)(C)O)cc(Nc4ccc(CCN)cc4)nn23)ccc1C(=O)NC1CC1 [Example 435, 4-(6-{[4-(2-aminoethyl)phenyl]amino}-8-[(2-hydroxy-2-methylpropyl)amino]imidazo[1,2-b]pyridazin-3-yl)-N-cyclopropyl-2-methylbenzamide] | 1.6
13 | CCNC(=O)c1ccc(-c2cnc3c(NCCN4CCOCC4)cc(Oc4cc(F)ccc4C)nn23)cc1C [Example 592, N-ethyl-4-[6-(5-fluoro-2-methylphenoxy)-8-{[2-(morpholin-4-yl)ethyl]amino}imidazo[1,2-b]pyridazin-3-yl]-2-methylbenzamide] | 1.5

Next, values leading:

Row | IC50 [nM] | Compound
14 | < 0.1 | Cc1cc(-c2cnc3c(NCCC(F)(F)F)cc(Sc4ccccc4O)nn23)ccc1C(=O)NC1CC1 [Example 224, N-cyclopropyl-4-{6-[(2-hydroxyphenyl)sulfanyl]-8-[(3,3,3-trifluoropropyl)amino]imidazo[1,2-b]pyridazin-3-yl}-2-methylbenzamide]
15 | < 1 | Cc1cc(-c2cnc3c(NCC(C)C)cc(-c4cncc(C#N)c4)nn23)ccc1C(=O)NC1CC1 [Example 213, 4-{6-(5-Cyanopyridin-3-yl)-8-(isobutylamino)imidazo[1,2-b]pyridazin-3-yl}-N-cyclopropyl-2-methylbenzamide]
16 | 0.1 | Cc1cc(-c2cnc3c(NCCC(C)(C)O)cc(Oc4cccc(F)c4)nn23)ccc1C(=O)NC1CC1 [Example 325, N-cyclopropyl-4-{6-(3-fluorophenoxy)-8-[(3-hydroxy-3-methylbutyl)amino]imidazo[1,2-b]pyridazin-3-yl}-2-methyl-benzamide]
17 | 1.5 | Cc1cc(-c2cnc3c(NC[C@H]4CCCO4)cc(-c4ccnn4C)nn23)ccc1C(=O)NC1CC1 [Example 33, N-cyclopropyl-2-methyl-4-[6-(1-methyl-1H-pyrazol-5-yl)-8-{[(2R)-tetrahydrofuran-2-ylmethyl]amino}imidazo[1,2-b]pyridazin-3-yl]benzamide]
18 | < 1 | CC(C)CNc1cc(-c2cccc(C(=O)NC3CC3)c2)nn2c(-c3ccc(C(=O)NC4CC4)cc3)cnc12 [Example 135, N-cyclopropyl-3-{3-[4-(cyclopropylcarbamoyl)phenyl]-8-[(2-methylpropyl)amino]imidazo[1,2-b]pyridazin-6-yl}benzamide]
19 | < 0.7 | Cc1cc(-c2cnc3c(NCC(C)(C)O)cc(Oc4cccc(F)c4)nn23)ccc1C(=O)NC1CC1 [Example 75, N-cyclopropyl-4-{6-(3-fluorophenoxy)-8-[(2-hydroxy-2-methylpropyl)amino]imidazo[1,2-b]pyridazin-3-yl}-2-methylbenzamide]
20 | 0.3 | Cc1cc(-c2cnc3c(NCC(C)(C)O)cc(Sc4ccccc4F)nn23)ccc1C(=O)NC1CC1 [Example 70, N-cyclopropyl-4-{6-[(2-fluorophenyl)sulfanyl]-8-[(2-hydroxy-2-methylpropyl)amino]imidazo[1,2-b]pyridazin-3-yl}-2-methylbenzamide]
21 | 1 | Cc1cc(-c2cnc3c(NCC(C)(C)O)cc(Nc4cc(F)cc(F)c4)nn23)ccc1C(=O)NC1CC1 [Example 351, N-cyclopropyl-4-{6-[(3,5-difluorophenyl)amino]-8-[(2-hydroxy-2-methylpropyl)amino]imidazo[1,2-b]pyridazin-3-yl}-2-methylbenzamide]
22 | 0.3 | Cc1cc(-c2cnc3c(NCCc4nnn[nH]4)cc(Oc4cccc(F)c4)nn23)ccc1C(=O)NC1CC1 [Example 511, N-cyclopropyl-4-[6-(3-fluoro-phenoxy)-8-{[2-(1H-tetrazol-5-yl)ethyl]amino}imidazo[1,2-b]pyridazin-3-yl]-2-methyl-benzamide]
23 | < 1 | CC(C)CNc1cc(-c2cccc(CO)c2)nn2c(-c3ccc(C(=O)NC4CC4)cc3)cnc12 [Example 103, N-cyclopropyl-4-{6-[3-(hydroxymethyl)phenyl]-8-[(2-methylpropyl)amino]imidazo[1,2-b]pyridazin-3-yl}benzamide]
24 | 0.4 | Cc1cc(-c2cnc3c(NCCC(F)(F)F)cc(Sc4ccc(Cl)cc4CO)nn23)ccc1C(=O)NC1CC1 [Example 392, 4-(6-{[4-chloro-2-(hydroxymethyl)phenyl]sulfanyl}-8-[(3,3,3-trifluoropropyl)amino]imidazo[1,2-b]pyridazin-3-yl)-N-cyclopropyl-2-methylbenzamide]
25 | 1.5 | Cc1cc(-c2cnc3c(NCC(C)(C)O)cc(Nc4ccc(Cl)cc4F)nn23)ccc1C(=O)NC1CC1 [Example 348, 4-{6-[(4-chloro-2-fluorophenyl)amino]-8-[(2-hydroxy-2-methylpropyl)amino]imidazo[1,2-b]pyridazin-3-yl}-N-cyclopropyl-2-methylbenzamide]
26 | 0.3 | COc1cccc(Sc2cc(NCC(C)(C)O)c3ncc(-c4ccc(C(=O)NC5CC5)c(C)c4)n3n2)c1 [Example 61B, N-cyclopropyl-4-{8-[(2-hydroxy-2-methylpropyl)amino]-6-[(3-methoxyphenyl)sulfanyl]imidazo[1,2-b]pyridazin-3-yl}-2-methylbenzamide]
